Data: US8975263B2, “Phenylxanthene derivatives” (Daiichi Sankyo Company, Limited, priority 2013, dated 2015)

The compounds below were run on C57BL/6J mice (assay: Oral glucose tolerance test). Conditions: male C57BL/6J mice, fasted overnight; oral gavage 10 mg/kg; solvent 0.5% MC; glucose 3 g/kg orally 30 minutes after compound; area under the curve of blood glucose level relative to control group.
Format: in vivo
Experimental: Commercially available mice (C57BL/6J mice; male; 8 to 12 weeks old when used; distributed by Charles River Laboratories Japan, Inc.) were used.
After acclimatization with freely feeding (FR-2, Funabashi Farm Co., Ltd.) for one week or more, the mice were fasted overnight and then used for the test. A 0.5% methylcellulose (Wako Pure Chemical Industries, Ltd.) solution (0.5% MC) containing a test compound at a concentration of 1 mg/ml and a mixed solution (PG:Tween) of propylene glycol (80 v/v %, Nacalai Tesque, Inc.) and Tween 80 (20 v/v %, Nacalai Tesque, Inc.) containing a test compound at a concentration of 2 mg/ml were prepared for administration to the mice. The prepared solution was administered by oral gavage to four or five mice in each group at a dose of 10 mg/kg as the test compound. For a control group, a 0.5% methylcellulose solution (dose: 10 ml/kg) or a mixed solution of propylene glycol and Tween 80 (dose: 5 ml/kg) was orally administered to mice. An oral glucose tolerance test was carried out by administering a glucose solution (Otsuka Glucose Solution 50%; Otsuka Pharmaceutical Factory, Inc.) orally at a dose of 3 g/kg to the mice 30 minutes after administration of the test compound.
Blood was collected from the tail vein of each mouse immediately before administration of the test compound (T0), […] after administration of the test compound (T1), and 30 minutes (T2) and 90 minutes (T3) after oral glucose loading. The blood glucose level was measured using a blood glucose level measuring apparatus (ACCU-CHEK Aviva; Roche Diagnostics, K.K.). The blood glucose level T1 was analyzed as a value obtained 30 minutes after administration of the compound and immediately before glucose loading. According to the following formula, the area under the curve of blood glucose level was calculated, and thereafter, the blood glucose lowering rate (%) was calculated as a value relative to the control group. The area under the curve of blood glucose level=[(blood glucose level T0+blood glucose level T1)×30]÷2+[(blood glucose level T1+blood glucose level T2)×30]÷2+[(blood glucose level T2+blood glucose level T3)×60]÷2 Blood glucose lowering rate(%)=[1−(the area under the curve of blood glucose level for the test compound group/the area under the curve of blood glucose level for the control group)]×100

Row | Structure (SMILES) | Blood glucose lowering rate (%)
1 | COc1ccc(-c2ccc(C)c(C(=O)NS(C)(=O)=O)n2)cc1C1C2=C(CC(C)(C)CC2=O)OC2=C1C(=O)CC(C)(C)C2 [Example 31, 6-[4-Methoxy-3-(3,3,6,6-tetramethyl-1,8-dioxo-2,3,4,5,6,7,8,9-octahydro-1H-xanthen-9-yl)phenyl]-3-methyl-N-(methylsulfonyl)pyridine-2-carboxamide] | 42
2 | COc1ccc(-c2cc(C)cc(C(=O)O)n2)c(C)c1C1C2=C(CC(C)(C)CC2=O)OC2=C1C(=O)CC(C)(C)C2 [Example 32, 6-[4-Methoxy-2-methyl-3-(3,3,6,6-tetramethyl-1,8-dioxo-2,3,4,5,6,7,8,9-octahydro-1H-xanthen-9-yl)phenyl]-4-methylpyridine-2-carboxylic acid] | 59
3 | COc1ccc(-c2nc(C(=O)O)ccc2C)c(C)c1C1C2=C(CC(C)(C)CC2=O)OC2=C1C(=O)CC(C)(C)C2 [Example 34, 6-[4-Methoxy-2-methyl-3-(3,3,6,6-tetramethyl-1,8-dioxo-2,3,4,5,6,7,8,9-octahydro-1H-xanthen-9-yl)phenyl]-5-methylpyridine-2-carboxylic acid] | 58
4 | COc1ccc(-c2ccc(C)c(C(=O)NS(C)(=O)=O)n2)cc1C1C2=C(CC(C)(C)CC2=O)OC2=C1C(=O)CC(C)(C)C2.[K] [Example 35, 6-[4-Methoxy-3-(3,3,6,6-tetramethyl-1,8-dioxo-2,3,4,5,6,7,8,9-octahydro-1H-xanthen-9-yl)phenyl]-3-methyl-N-(methylsulfonyl)pyridine-2-carboxamide potassium salt] | 52
5 | COc1ccc(-c2cc(C)cc(C(=O)NS(C)(=O)=O)n2)c(C)c1C1C2=C(CC(C)(C)CC2=O)OC2=C1C(=O)CC(C)(C)C2 [Example 40, 6-[4-Methoxy-2-methyl-3-(3,3,6,6-tetramethyl-1,8-dioxo-2,3,4,5,6,7,8,9-octahydro-1H-xanthen-9-yl)phenyl]-4-methyl-N-(methylsulfonyl)pyridine-2-carboxamide] | 38
6 | CC(C)(C)N.COc1ccc(-c2ccc(C)c(C(=O)NS(C)(=O)=O)n2)c(C)c1C1C2=C(CC(C)(C)CC2=O)OC2=C1C(=O)CC(C)(C)C2 [Example 41, 6-[4-Methoxy-2-methyl-3-(3,3,6,6-tetramethyl-1,8-dioxo-2,3,4,5,6,7,8,9-octahydro-1H-xanthen-9-yl)phenyl]-3-methyl-N-(methylsulfonyl)pyridine-2-carboxamide 2-methylpropan-2-amine salt] | 44
7 | CC(C)(C)N.COc1ccc(-c2cc(C)cc(C(=O)NS(C)(=O)=O)n2)c(C)c1C1C2=C(CC(C)(C)CC2=O)OC2=C1C(=O)CC(C)(C)C2 [Example 42, 6-[4-Methoxy-2-methyl-3-(3,3,6,6-tetramethyl-1,8-dioxo-2,3,4,5,6,7,8,9-octahydro-1H-xanthen-9-yl)phenyl]-4-methyl-N-(methylsulfonyl)pyridine-2-carboxamide 2-methylpropan-2-amine salt] | 44
8 | COc1ccc(-c2cc(C)c(C)c(C(=O)O)n2)c(C)c1C1C2=C(CC(C)(C)CC2=O)OC2=C1C(=O)CC(C)(C)C2 [Example 43, 6-[4-Methoxy-2-methyl-3-(3,3,6,6-tetramethyl-1,8-dioxo-2,3,4,5,6,7,8,9-octahydro-1H-xanthen-9-yl)phenyl]-3,4-dimethylpyridine-2-carboxylic acid] | 60
9 | COc1ccc(-c2cc(C)c(C)c(C(=O)NS(C)(=O)=O)n2)c(C)c1C1C2=C(CC(C)(C)CC2=O)OC2=C1C(=O)CC(C)(C)C2 [Example 44, 6-[4-Methoxy-2-methyl-3-(3,3,6,6-tetramethyl-1,8-dioxo-2,3,4,5,6,7,8,9-octahydro-1H-xanthen-9-yl)phenyl]-3,4-dimethyl-N-(methylsulfonyl)pyridine-2-carboxamide] | 44
10 | CCc1ccc(-c2ccc(OC)c(C3C4=C(CC(C)(C)CC4=O)OC4=C3C(=O)CC(C)(C)C4)c2)nc1C(=O)O [Example 45, 3-Ethyl-6-[4-methoxy-3-(3,3,6,6-tetramethyl-1,8-dioxo-2,3,4,5,6,7,8,9-octahydro-1H-xanthen-9-yl)phenyl]pyridine-2-carboxylic acid] | 42
11 | CCc1ccc(-c2ccc(OC)c(C3C4=C(CC(C)(C)CC4=O)OC4=C3C(=O)CC(C)(C)C4)c2)nc1C(=O)NS(C)(=O)=O [Example 46, 3-Ethyl-6-[4-methoxy-3-(3,3,6,6-tetramethyl-1,8-dioxo-2,3,4,5,6,7,8,9-octahydro-1H-xanthen-9-yl)phenyl]-N-(methylsulfonyl)pyridine-2-carboxamide] | 47
12 | COc1ccc(-c2cc3c(c(C(=O)O)n2)CCCC3)c(C)c1C1C2=C(CC(C)(C)CC2=O)OC2=C1C(=O)CC(C)(C)C2 [Example 47, 3-[4-Methoxy-2-methyl-3-(3,3,6,6-tetramethyl-1,8-dioxo-2,3,4,5,6,7,8,9-octahydro-1H-xanthen-9-yl)phenyl]-5,6,7,8-tetrahydroisoquinoline-1-carboxylic acid] | 56
13 | COc1ccc(-c2ccc(N)c(C(=O)O)n2)c(C)c1C1C2=C(CC(C)(C)CC2=O)OC2=C1C(=O)CC(C)(C)C2 [Example 48, 3-Amino-6-[4-methoxy-2-methyl-3-(3,3,6,6-tetramethyl-1,8-dioxo-2,3,4,5,6,7,8,9-octahydro-1H-xanthen-9-yl)phenyl]pyridine-2-carboxylic acid] | 62
14 | COc1ccc(-c2ccc(N)c(C(=O)NS(C)(=O)=O)n2)c(C)c1C1C2=C(CC(C)(C)CC2=O)OC2=C1C(=O)CC(C)(C)C2 [Example 49, 3-Amino-6-[4-methoxy-2-methyl-3-(3,3,6,6-tetramethyl-1,8-dioxo-2,3,4,5,6,7,8,9-octahydro-1H-xanthen-9-yl)phenyl]-N-(methylsulfonyl)pyridine-2-carboxamide] | 34
15 | COc1ccc(-c2ccc(N)c(C(=O)O)n2)cc1C1C2=C(CC(C)(C)CC2=O)OC2=C1C(=O)CC(C)(C)C2 [Example 51, 3-Amino-6-[4-methoxy-3-(3,3,6,6-tetramethyl-1,8-dioxo-2,3,4,5,6,7,8,9-octahydro-1H-xanthen-9-yl)phenyl]pyridine-2-carboxylic acid] | 39
16 | COc1ccc(-c2ccc(N)c(C(=O)NS(C)(=O)=O)n2)cc1C1C2=C(CC(C)(C)CC2=O)OC2=C1C(=O)CC(C)(C)C2 [Example 52, 3-Amino-6-[4-methoxy-3-(3,3,6,6-tetramethyl-1,8-dioxo-2,3,4,5,6,7,8,9-octahydro-1H-xanthen-9-yl)phenyl]-N-(methylsulfonyl)pyridine-2-carboxamide] | 44
17 | CNc1ccc(-c2ccc(OC)c(C3C4=C(CC(C)(C)CC4=O)OC4=C3C(=O)CC(C)(C)C4)c2C)nc1C(=O)O [Example 53, 6-[4-Methoxy-2-methyl-3-(3,3,6,6-tetramethyl-1,8-dioxo-2,3,4,5,6,7,8,9-octahydro-1H-xanthen-9-yl)phenyl]-3-(methylamino)pyridine-2-carboxylic acid] | 64
18 | CNc1ccc(-c2ccc(OC)c(C3C4=C(CC(C)(C)CC4=O)OC4=C3C(=O)CC(C)(C)C4)c2C)nc1C(=O)NS(C)(=O)=O [Example 54, 6-[4-Methoxy-2-methyl-3-(3,3,6,6-tetramethyl-1,8-dioxo-2,3,4,5,6,7,8,9-octahydro-1H-xanthen-9-yl)phenyl]-3-(methylamino)-N-(methylsulfonyl)pyridine-2-carboxamide] | 49
19 | COc1ccc(-c2ccnc(CO)n2)c(C)c1C1C2=C(CC(C)(C)CC2=O)OC2=C1C(=O)CC(C)(C)C2 [Example 76, 9-{3-[2-(Hydroxymethyl)pyrimidin-4-yl]-6-methoxy-2-methylphenyl}-3,3,6,6-tetramethyl-3,4,5,6,7,9-hexahydro-1H-xanthene-1,8(2H)-dione] | 33

Same assay, conditions: male C57BL/6J mice, fasted overnight; oral gavage 10 mg/kg; solvent PG:Tween; glucose 3 g/kg orally 30 minutes after compound; area under the curve of blood glucose level relative to control group

Row | Structure (SMILES) | Blood glucose lowering rate (%)
20 | COc1ccc(-c2ccnc(C(N)=O)n2)c(C)c1C1C2=C(CC(C)(C)CC2=O)OC2=C1C(=O)CC(C)(C)C2 [Example 75, 4-[4-Methoxy-2-methyl-3-(3,3,6,6-tetramethyl-1,8-dioxo-2,3,4,5,6,7,8,9-octahydro-1H-xanthen-9-yl)phenyl]pyrimidine-2-carboxylic acid amide] | 35
